Key:
Human NTCP [1] = target: T1, Human NTCP (Homo sapiens, UniProt Q14973); experiment: 3H-taurocholic acid uptake in human NTCP-overexpressing cells; format: cell-based; conditions: 3H-taurocholic acid transport
T1 construct: expressed in transfected cells; peptide purchased from Pharmaron
T1 sequence (Q14973 1-349): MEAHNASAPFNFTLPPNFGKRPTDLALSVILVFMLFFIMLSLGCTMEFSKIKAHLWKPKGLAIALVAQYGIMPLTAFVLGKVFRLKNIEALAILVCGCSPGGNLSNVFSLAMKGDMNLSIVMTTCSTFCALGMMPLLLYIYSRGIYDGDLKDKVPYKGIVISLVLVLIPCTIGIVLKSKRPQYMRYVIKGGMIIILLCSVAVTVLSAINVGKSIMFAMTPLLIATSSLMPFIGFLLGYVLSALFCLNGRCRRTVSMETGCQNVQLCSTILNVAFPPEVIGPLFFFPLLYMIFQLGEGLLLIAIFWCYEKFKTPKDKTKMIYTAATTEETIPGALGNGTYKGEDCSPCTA
Procedure: (§1) 20,000 cells (Human & Mouse NTCP-overexpressing cells) were seeded in 96-well plate in 100 μL MEM-alpha medium supplemented with 10% FBS containing geneticin (1 mg/mL) and incubated at 37° C. in 5% CO2 for 24 hrs. After incubation, media was decanted from the wells and cells were washed two times with 250 μL of basal MEM-alpha medium (FBS-free). After each wash, plates were tapped against a paper towel to ensure maximum removal of residual media. For Human NTCP (hNTCP), incubation mix was prepared by adding test inhibitor dilutions (3-fold serial dilution in DMSO, 10 concentrations) in MEM-alpha (without FBS) containing 0.3 μM ^3H-taurocholic acid and 7.5 μM cold taurocholic acid (maintaining 0.2% final DMSO concentration). […]
(§2) The plates were tapped against a paper towel after every wash to ensure maximum removal of blocking buffer. 100 μL of MicroScint-20 was added to the wells and kept overnight at room temperature before reading the plates in MicroBeta2 liquid Scintillation Counter from PerkinElmer under 3H Test for I/L-BAT protocol (set at 120 seconds reading time per well, with normal plate orientation).
(§3) Percentage inhibitions were calculated with respect to the assay controls. […]

NTCP-HepG2 cells = experiment: MTT cytotoxicity assay; format: cell-based, human; conditions: 1 nM-100 μM, HepG2 cells expressing NTCP
Procedure: The In Vitro Toxicology Assay Kit (Sigma-Aldrich) was used to perform a 3-[4,5-dimethylthiazole-2-yl]-2,5-diphenyltetrazolium bromide (MTT) assay to measure the cytotoxicity of the test item according to the manufacturer's protocol. Briefly, NTCP-HepG2 cells were incubated with 100 μL of the indicated concentrations of the test item solved in Hepatocyte Growth Medium (HGM) over 6 h at 37° C. After 6 h, medium was replaced by inhibitor-free HGM and cells were cultured for additional 24 h. Then medium was removed and 100 μL DMEM containing 0.5 mg/mL MTT was added and cells were incubated for 1 h at 37° C. Finally, the medium was replaced by 100 μL isopropyl alcohol (Sigma-Aldrich) and samples were measured by Glo-Max-Multi Detection System (Promega, Madison, Wis., USA). See also Lowjaga K A A, et al. (2020). Long-term trans-inhibition of the hepatitis B and D virus receptor NTCP by taurolithocholic acid. Am J Physiol Gastrointest Liver Physiol 320(1):G66-G80; and Kirstgen et al. 2021.

Human NTCP [2] = target: T1, Human NTCP; experiment: [3H]taurocholate uptake in hNTCP-transfected CHO cells, apparent Ki and type of inhibition; format: cell-based
Procedure: Stably hNTCP-transfected CHO cells were seeded onto 24 well plates. After overnight incubation, CHO cells were treated with 10 mM sodium butyrate to induce NTCP transporter expression. Twenty-four hours later, media was aspirated, cells were washed with warm Hanks balanced salt solution (HBSS) containing sodium (+Na). Cells were incubated with increasing doses of Compound 1 (for example: 0, 10 nM, 100 nM, 1 μM, 10 μM), in the presence of tracer doses of 5 μm, 10 μM, or 25 μM [^3H]taurocholate at 37° C. for <10 minutes. The cells were processed for radioactivity. The apparent Ki and kinetic types of inhibition (competitive, uncompetitive, non-competitive, mixed) were determined by complementary Dixon/Cornish-Bowden plot analysis and Lineweaver-Burk plot analysis.

Mouse NTCP = target: T2, Mouse NTCP (Mus musculus, UniProt O08705); experiment: 3H-taurocholic acid uptake in mouse NTCP-overexpressing cells; format: cell-based; conditions: 3H-taurocholic acid transport
T2 construct: expressed in transfected cells; kept under geneticin selection
T2 sequence (O08705 1-362): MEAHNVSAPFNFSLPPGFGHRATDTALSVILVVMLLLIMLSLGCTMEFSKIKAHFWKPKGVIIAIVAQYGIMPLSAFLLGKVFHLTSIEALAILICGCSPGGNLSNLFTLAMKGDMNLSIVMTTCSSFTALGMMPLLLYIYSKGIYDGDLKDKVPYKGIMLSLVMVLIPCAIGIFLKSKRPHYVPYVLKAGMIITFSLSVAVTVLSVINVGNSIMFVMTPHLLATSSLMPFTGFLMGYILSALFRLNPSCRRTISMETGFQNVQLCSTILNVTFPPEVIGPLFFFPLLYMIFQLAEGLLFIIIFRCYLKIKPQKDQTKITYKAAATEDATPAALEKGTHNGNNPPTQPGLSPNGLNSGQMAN
Procedure: as §1, §2, §3

SMILES: CCCCC1CN(c2ccccc2)c2cc(SC)c(O/C=C(\F)C(=O)O)cc2S(=O)(=O)N1C (centres unmarked) [Compound 1, (Z)-3-((3-butyl-2-methyl-7-(methylthio)-1,1-dioxido-5-phenyl-2,3,4,5-tetrahydro-1,2,5-benzothiadiazepin-8-yl)oxy)-2-fluoroacrylic acid]
- IC50 (Human NTCP [1]): 0.53 ± 0.081 nM
- cytotoxic effects (MTT) (NTCP-HepG2 cells): no cytotoxic effects
- kinetic type of inhibition of transporter activity (Human NTCP [2]; Dixon/Cornish-Bowden and Lineweaver-Burk analysis, NTCP and ASBT): competitive inhibitor
- Ki (Human NTCP [2]; [3H]taurocholate, CHO cells, read-out: inhibitory constant (Ki) for human NTCP): 15 nM
- IC50 (Mouse NTCP): 1.82 ± 0.25 nM
